US5169856A, “Piperidinoalkyl derivatives of carboxylic acid amides” (priority 1988, dated 1992)
Structures can show the parent of a compound that is named as a salt.

Target: T1, acetylcholinesterase (Rattus norvegicus, UniProt P37136)
T1 construct: S1 fraction of the cerebral cortex of male Wistar rats, the enzyme source; from tissue; host or cells: S1 fraction of the cerebral cortex of male Wistar rats
Assay: Inhibition of cholinesterase activity, radiometric ([acetyl-3H]-acetylcholine), S1 fraction of rat cerebral cortex
Format: biochemical, male Wistar rats
Conditions: 15 min preincubation at room temperature, [acetyl-3H]-acetylcholine final 200 μM, 30 min, read-out: Anti-acetylcholinesterase activity IC50
Experimental: Cholinesterase activity was measured radiometrically by the method of Johnson and Russell^1), modified by Kleinberger and Yanal^2), with a slight modification.
S1 fraction of the cerebral cortex of male Wistar rats, the enzyme source, was preincubated in a scintillation vial with drugs for 15 min at room temperature, and then [acetyl-^3 H]-acetylchollne (final 200 μM) was added and incubated further for 30 min. The reaction was terminated by adding solution containing 1 M chloroacetic acid, followed by toluene-based scintillant, and the vials were capped and shaken to transfer the product, [^3 H]-acetic acid, to toluene phase. Then radioactivity in the toluene phase was counted by liquid scintillation spectrometry. Inhibitory activity of the test drug was expressed by 50%-inhibitory concentration (IC50), which was calculated by linear regression of log-probit transformation of the inhibition curve.

T1 sequence (P37136 32-614): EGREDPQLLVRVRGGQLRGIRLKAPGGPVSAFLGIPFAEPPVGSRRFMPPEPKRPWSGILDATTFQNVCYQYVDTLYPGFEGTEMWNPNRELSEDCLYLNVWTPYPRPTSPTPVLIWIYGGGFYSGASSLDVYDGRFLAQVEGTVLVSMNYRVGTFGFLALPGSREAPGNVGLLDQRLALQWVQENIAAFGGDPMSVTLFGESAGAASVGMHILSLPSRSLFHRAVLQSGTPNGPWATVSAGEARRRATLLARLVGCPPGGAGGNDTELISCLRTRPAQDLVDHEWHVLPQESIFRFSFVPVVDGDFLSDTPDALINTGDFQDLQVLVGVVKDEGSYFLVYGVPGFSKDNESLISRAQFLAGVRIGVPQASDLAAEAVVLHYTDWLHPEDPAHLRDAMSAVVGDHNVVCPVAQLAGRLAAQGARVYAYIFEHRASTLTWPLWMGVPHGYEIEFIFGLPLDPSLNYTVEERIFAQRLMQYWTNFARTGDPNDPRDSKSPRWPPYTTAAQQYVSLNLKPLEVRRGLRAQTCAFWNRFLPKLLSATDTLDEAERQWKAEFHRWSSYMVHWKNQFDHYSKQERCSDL

| SMILES | IC50 [µM] |
| --- | --- |
| O=C(/C=C/c1ccccc1)NCCC1CCN(Cc2ccccc2)CC1 [Example 1, (E)-3-Phenyl-N-[2-(1-benzylpiperidin-4-yl)ethyl]-2propenamide.hydrochloride] | 9.6 |
| CN(CCC1CCN(Cc2ccccc2)CC1)C(=O)/C=C/c1ccccc1 [Example 2, (E)-3-Phenyl-N-methyl-N-[2-(1-benzylpiperidin-4-yl)ethyl]-2-propenamide.hydrochloride] | 18 |
| CC(=O)N(CCC1CCN(Cc2ccccc2)CC1)C(=O)/C=C/c1ccccc1 [Example 3, (E)-3-Phenyl-N-acetyl-N-[2-(1-benzylpiperidin-4yl)ethyl]-2-propenamide.hydrochloride] | 0.64 |
| CC(=Cc1ccccc1)C(=O)NCCC1CCN(Cc2ccccc2)CC1 [Example 4-1] | 8.1 |
| O=C(NCCC1CCN(Cc2ccccc2)CC1)C(=Cc1ccccc1)c1ccccc1 [Example 4-2] | 3.5 |
| O=C(C=Cc1cccnc1)NCCC1CCN(Cc2ccccc2)CC1 [Example 4-3] | 2 |
| O=C(C=Cc1ccco1)NCCC1CCN(Cc2ccccc2)CC1 [Example 4-4] | 9.9 |
| O=C(C=Cc1cccs1)NCCC1CCN(Cc2ccccc2)CC1 [Example 4-5] | 13 |
| COc1ccc(C=CC(=O)NCCC2CCN(Cc3ccccc3)CC2)cc1OC [Example 4-6] | 2.6 |
| COc1cc2c(cc1OC)CCC(C(=O)NCCC1CCN(Cc3ccccc3)CC1)=C2 [Example 4-7] | 1.2 |
| O=C(C=Cc1ccc([N+](=O)[O-])cc1)NCCC1CCN(Cc2ccccc2)CC1 [Example 4-8] | 2.8 |
| N#Cc1ccc(C=CC(=O)NCCC2CCN(Cc3ccccc3)CC2)cc1 [Example 4-9] | 3.3 |
| CS(=O)(=O)c1ccc(C=CC(=O)NCCC2CCN(Cc3ccccc3)CC2)cc1 [Example 4-10] | 1.6 |
| Cc1ccc(C=CC(=O)NCCC2CCN(Cc3ccccc3)CC2)cc1 [Example 4-11] | 15 |
| O=C(C=Cc1ccc(Cl)cc1)NCCC1CCN(Cc2ccccc2)CC1 [Example 4-12] | 9.2 |
